Assay results from PubChem BioAssay AID1963842 (Molecular Pharmacology Branch, DTP, NCI, 2024).

System: 677734-321-R-J1-PDC complex spheroid viability
Experiment: Anticancer human tumor 677734-321-R-J1-PDC patient-derived soft tissue sarcoma cell line growth inhibition [POLQ]
Conditions: for IC50: curve of first compound; for viability, T/C: stronger effect = lower value
Procedure, shortened: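 Complex spheroid viability model combining PDC tumour cells with endothelial (HUVEC) and MSC stromal cells. Novobiocin, ART-558 or RP6685 were tested singly and in combination with standard and investigational anticancer drugs. Each was titrated in half-log steps from near clinical Cmax, or from 10 microM where Cmax was unknown.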

[1] = second compound 0.0316 µM, first compound 0.0316 µM
[2] = second compound 0.0316 µM, first compound 0.1 µM
[3] = second compound 0.0316 µM, first compound 0.316 µM
[4] = second compound 0.0316 µM, first compound 1 µM
[5] = second compound 0.0316 µM, first compound 3.16 µM
[6] = second compound 0.0316 µM, first compound 10 µM
[7] = second compound 0.1 µM, first compound 0.0316 µM
[8] = second compound 0.1 µM, first compound 0.1 µM
[9] = second compound 0.1 µM, first compound 0.316 µM
[10] = second compound 0.1 µM, first compound 1 µM
[11] = second compound 0.1 µM, first compound 3.16 µM
[12] = second compound 0.1 µM, first compound 10 µM
[13] = second compound 0.316 µM, first compound 0.0316 µM
[14] = second compound 0.316 µM, first compound 0.1 µM
[15] = second compound 0.316 µM, first compound 0.316 µM
[16] = second compound 0.316 µM, first compound 1 µM
[17] = second compound 0.316 µM, first compound 3.16 µM
[18] = second compound 0.316 µM, first compound 10 µM
[19] = second compound 1 µM, first compound 0.0316 µM
[20] = second compound 1 µM, first compound 0.1 µM
[21] = second compound 1 µM, first compound 0.316 µM
[22] = second compound 1 µM, first compound 1 µM
[23] = second compound 1 µM, first compound 3.16 µM
[24] = second compound 1 µM, first compound 10 µM
[25] = second compound 3.16 µM, first compound 0.0316 µM
[26] = second compound 3.16 µM, first compound 0.1 µM
[27] = second compound 3.16 µM, first compound 0.316 µM
[28] = second compound 3.16 µM, first compound 1 µM
[29] = second compound 3.16 µM, first compound 3.16 µM
[30] = second compound 3.16 µM, first compound 10 µM
[31] = second compound 10 µM, first compound 0.0316 µM
[32] = second compound 10 µM, first compound 0.1 µM
[33] = second compound 10 µM, first compound 0.316 µM
[34] = second compound 10 µM, first compound 1 µM
[35] = second compound 10 µM, first compound 3.16 µM
[36] = second compound 10 µM, first compound 10 µM
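Further: spheroids exposed to compounds for one week.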
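Wherever viability, T/C is given: 100% = vehicle DMSO treated spheroids.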

## CCc1cc2c(N3CCc4c(cc(Cn5ccnc5)cc4-c4cn(C)nc4C(F)(F)F)C3=O)cc(C)nc2c(OC)n1 + Cc1cccc(N(C)C(=O)C2C(O)CCN2c2nc(C)cc(C(F)(F)F)c2C#N)c1
Second compound 0.0316 µM
  IC50: 6.44 µM
Second compound 0.1 µM
  IC50: 5.35 µM
Second compound 0.316 µM
  IC50: 4.3 µM
Second compound 1 µM
  IC50: 5.15 µM
Second compound 3.16 µM
  IC50: 3.65 µM
Second compound 10 µM
  IC50: 2.27 µM
[1]
  viability, T/C: 104%
[2]
  viability, T/C: 116%
[3]
  viability, T/C: 84%
[4]
  viability, T/C: 94%
[5]
  viability, T/C: 65.5%
[6]
  viability, T/C: 39.3%
[7]
  viability, T/C: 97.3%
[8]
  viability, T/C: 94.7%
[9]
  viability, T/C: 99.7%
[10]
  viability, T/C: 75.6%
[11]
  viability, T/C: 66.3%
[12]
  viability, T/C: 33.1%
[13]
  viability, T/C: 92.4%
[14]
  viability, T/C: 102%
[15]
  viability, T/C: 98.8%
[16]
  viability, T/C: 81.8%
[17]
  viability, T/C: 58.8%
[18]
  viability, T/C: 28.5%
[19]
  viability, T/C: 111%
[20]
  viability, T/C: 106%
[21]
  viability, T/C: 92.2%
[22]
  viability, T/C: 88.1%
[23]
  viability, T/C: 62.7%
[24]
  viability, T/C: 31.6%
[25]
  viability, T/C: 101%
[26]
  viability, T/C: 98.6%
[27]
  viability, T/C: 94%
[28]
  viability, T/C: 82.3%
[29]
  viability, T/C: 52.1%
[30]
  viability, T/C: 31.8%
[31]
  viability, T/C: 92.5%
[32]
  viability, T/C: 76.1%
[33]
  viability, T/C: 70.4%
[34]
  viability, T/C: 58.4%
[35]
  viability, T/C: 48.1%
[36]
  viability, T/C: 34.1%

## CNCc1ccc(-c2[nH]c3cc(F)cc4c3c2CCNC4=O)cc1 + Nc1ccc(C#CCN(C(=O)Cc2ncc(C(F)(F)F)cc2C(F)(F)F)c2ccc(F)cc2)nn1
Second compound 0.0316 µM
  IC50: > 10 µM
Second compound 0.1 µM
  IC50: > 10 µM
Second compound 0.316 µM
  IC50: > 10 µM
Second compound 1 µM
  IC50: > 10 µM
Second compound 3.16 µM
  IC50: > 10 µM
Second compound 10 µM
  IC50: > 10 µM
[1]
  viability, T/C: 90.2%
[2]
  viability, T/C: 99.6%
[3]
  viability, T/C: 100%
[4]
  viability, T/C: 81%
[5]
  viability, T/C: 101%
[6]
  viability, T/C: 81.6%
[7]
  viability, T/C: 113%
[8]
  viability, T/C: 106%
[9]
  viability, T/C: 107%
[10]
  viability, T/C: 100%
[11]
  viability, T/C: 106%
[12]
  viability, T/C: 61.8%
[13]
  viability, T/C: 100%
[14]
  viability, T/C: 109%
[15]
  viability, T/C: 106%
[16]
  viability, T/C: 127%
[17]
  viability, T/C: 94.5%
[18]
  viability, T/C: 80.1%
[19]
  viability, T/C: 118%
[20]
  viability, T/C: 86.4%
[21]
  viability, T/C: 106%
[22]
  viability, T/C: 91.8%
[23]
  viability, T/C: 88.7%
[24]
  viability, T/C: 67.4%
[25]
  viability, T/C: 97.7%
[26]
  viability, T/C: 109%
[27]
  viability, T/C: 109%
[28]
  viability, T/C: 113%
[29]
  viability, T/C: 101%
[30]
  viability, T/C: 63.5%
[31]
  viability, T/C: 97.4%
[32]
  viability, T/C: 99.3%
[33]
  viability, T/C: 89.2%
[34]
  viability, T/C: 114%
[35]
  viability, T/C: 107%
[36]
  viability, T/C: 63.6%

## O=C(c1cc(Cc2n[nH]c(=O)c3ccccc23)ccc1F)N1CCN(C(=O)C2CC2)CC1 + Cc1cccc(N(C)C(=O)C2C(O)CCN2c2nc(C)cc(C(F)(F)F)c2C#N)c1
Second compound 0.0316 µM
  IC50: > 10 µM
Second compound 0.1 µM
  IC50: > 10 µM
Second compound 0.316 µM
  IC50: > 10 µM
Second compound 1 µM
  IC50: > 10 µM
Second compound 3.16 µM
  IC50: > 10 µM
Second compound 10 µM
  IC50: > 10 µM
[1]
  viability, T/C: 108%
[2]
  viability, T/C: 95.2%
[3]
  viability, T/C: 101%
[4]
  viability, T/C: 97.2%
[5]
  viability, T/C: 96.8%
[6]
  viability, T/C: 83%
[7]
  viability, T/C: 105%
[8]
  viability, T/C: 103%
[9]
  viability, T/C: 101%
[10]
  viability, T/C: 99.3%
[11]
  viability, T/C: 95.4%
[12]
  viability, T/C: 80%
[13]
  viability, T/C: 103%
[14]
  viability, T/C: 103%
[15]
  viability, T/C: 97.5%
[16]
  viability, T/C: 94.6%
[17]
  viability, T/C: 100%
[18]
  viability, T/C: 80.2%
[19]
  viability, T/C: 115%
[20]
  viability, T/C: 93.3%
[21]
  viability, T/C: 102%
[22]
  viability, T/C: 103%
[23]
  viability, T/C: 100%
[24]
  viability, T/C: 84.7%
[25]
  viability, T/C: 110%
[26]
  viability, T/C: 95.8%
[27]
  viability, T/C: 103%
[28]
  viability, T/C: 99.6%
[29]
  viability, T/C: 98.9%
[30]
  viability, T/C: 81.6%
[31]
  viability, T/C: 99.8%
[32]
  viability, T/C: 101%
[33]
  viability, T/C: 94.1%
[34]
  viability, T/C: 96.4%
[35]
  viability, T/C: 89.4%
[36]
  viability, T/C: 80.4%
